Results: PubChem BioAssay AID624443 (The Scripps Research Institute Molecular Screening Center, 2012)
Active and inactive are the calls of the source.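 How the source made its calls: active means inhibition of 30% or more at 50 µM, though no compound was called active; inactive means inhibition below 30% at 50 µM.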

Target: Serine/threonine-protein phosphatase 2A catalytic subunit alpha isoform (Bos taurus) (UniProt P67774)
Assay: inhibitors of bovine PP2A histone dephosphorylation – biochemical, bovine brain PP2A, 33P-phosphohistone, single concentration, round 5, selectivity assay for PP5 inhibitor project, late-stage follow-up (AID 624443)
Conditions: purified bovine PP2A, 33P-phosphohistone dephosphorylation, scintillation; at 50 µM; active compounds read high

Chain of Serine/threonine-protein phosphatase 2A catalytic subunit alpha isoform (Bos taurus) (P67774 whole entry, looked up, canonical isoform): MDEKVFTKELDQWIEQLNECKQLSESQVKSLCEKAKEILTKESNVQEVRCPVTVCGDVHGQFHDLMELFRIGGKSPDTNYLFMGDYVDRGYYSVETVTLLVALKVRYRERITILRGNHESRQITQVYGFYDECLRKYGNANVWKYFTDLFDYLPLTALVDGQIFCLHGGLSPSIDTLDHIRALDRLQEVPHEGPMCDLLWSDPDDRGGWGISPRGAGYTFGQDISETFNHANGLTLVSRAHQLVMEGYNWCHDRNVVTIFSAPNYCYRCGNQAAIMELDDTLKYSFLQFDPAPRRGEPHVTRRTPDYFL

Row | Structure (SMILES) | inhibition
1 | COc1ccc(-c2n[nH]nc2C(=O)O)cc1 | -5.38% (inactive)
2 | COc1cccc(-c2n[nH]nc2C(=O)O)c1 | 3.7% (inactive)
3 | O=C(O)c1n[nH]nc1-c1cccc(F)c1 | 1.89% (inactive)
4 | O=C(O)c1n[nH]nc1-c1ccc(F)cc1 | -0.575% (inactive)

The remaining lines, values ahead:

Row | inhibition | Structure (SMILES)
5 | 0.275% (inactive) | O=C(O)c1n[nH]nc1-c1ccccc1O
6 | 24.7% (inactive) | COc1ccccc1-c1n[nH]nc1C(=O)O
7 | 3.76% (inactive) | O=C(O)c1n[nH]nc1-c1ccccc1F
